Measured values reported in patent US9145351B2, “Azole derivatives, methods for producing the same, intermediate thereof, agro-horticultural agents” (KUREHA CORPORATION, priority 2009, dated 2015).
Read-outs that look alike come from different tables or passages of the source.

Legend:
Format in all cases: cell-based
Pyricularia oryzae = assay: microbe, parasite or virus in culture; conditions: for inhibition at 5 µg/mL / inhibition at 50 µg/mL: Pyricularia oryzae; for Growth inhibition grade, P.o: plate medium
Rhynchosporium secalis = assay: Plate medium fungicidal assay, barley leaf blotch R.sec (Experimental Example 5); conditions: for inhibition at 5 µg/mL / inhibition at 50 µg/mL: Rhynchosporium secalis
How it was run: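 Compound in DMSO mixed into PDA plate medium at 50 mg/L and 5 mg/L; 4 mm mycelial plug of the fungus inoculated. Colony diameter compared with untreated plates gives % mycelial growth inhibition R=100(dc−dt)/dc, scored on a 5-grade scale.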

Ustilago nuda = assay: Plate medium fungicidal assay, barley loose smut U.n (Experimental Example 5); conditions: for inhibition at 5 µg/mL / inhibition at 50 µg/mL: Ustilago nuda
How it was run: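 Compounds in DMSO were mixed into molten PDA to give plates at 50 mg/L and 5 mg/L, then inoculated with a 4 mm mycelial plug. Colony diameter was compared with untreated plates as % inhibition = 100(dc−dt)/dc, scored on a 5-grade scale.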

Botritis cinerea = assay: Plate medium fungicidal assay, gray mold B.c (Experimental Example 5)
How it was run: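 Compounds in DMSO were incorporated into PDA plate medium at 50 mg/L and 5 mg/L, then inoculated with 4 mm mycelial plugs of Botrytis cinerea. Colony diameter versus untreated plates gave % mycelial growth inhibition, R=100(dc−dt)/dc, scored on a 5-grade scale.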

Giberella fujikuroi = assay: Plate medium fungicidal assay, rice bakanae disease G.f (Experimental Example 5)
How it was run: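 Gibberella fujikuroi mycelial plugs (4 mm) placed on PDA plates containing compound at 50 mg/L and 5 mg/L, added from DMSO solution. Colony diameter compared with untreated plates as % inhibition = 100(dc−dt)/dc, then scored in 5 grades.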

Sclerotinia sclerotiorum = assay: Plate medium fungicidal assay, Sclerotinia rot S.s (Experimental Example 5); conditions: for inhibition at 5 µg/mL / inhibition at 50 µg/mL: Sclerotinia sclerotiorum
How it was run: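 A 4 mm mycelial plug was placed on PDA plates containing compound at 50 mg/L and 5 mg/L, added from DMSO solution. Colony diameters were compared with untreated plates, % mycelial growth inhibition was R=100(dc−dt)/dc, and scores fell into 5 grades.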

[1] = read-out: growth inhibition grade P.o
[2] = plate medium, 5 mg/L, read-out: growth inhibition grade R.sec
[3] = plate medium, 50 mg/L, read-out: growth inhibition grade R.sec
[4] = plate medium, 5 mg/L, read-out: growth inhibition grade U.n
[5] = plate medium, 50 mg/L, read-out: growth inhibition grade U.n
[6] = plate medium, 5 mg/L, read-out: growth inhibition grade B.c
[7] = plate medium, 50 mg/L, read-out: growth inhibition grade B.c
[8] = plate medium, 5 mg/L, read-out: growth inhibition grade G.f
[9] = plate medium, 50 mg/L, read-out: growth inhibition grade G.f
[10] = plate medium, 5 mg/L, read-out: growth inhibition grade S.s
[11] = plate medium, 50 mg/L, read-out: growth inhibition grade S.s
[12] = read-out: Growth inhibition grade, P.o
[13] = plate medium containing compound at 5 mg/L, read-out: Growth inhibition grade, R.sec
[14] = plate medium containing compound at 50 mg/L, read-out: Growth inhibition grade, R.sec
[15] = plate medium containing compound at 5 mg/L, read-out: Growth inhibition grade, U.n
[16] = plate medium containing compound at 50 mg/L, read-out: Growth inhibition grade, U.n
[17] = plate medium containing compound at 5 mg/L, read-out: Growth inhibition grade, B.c
[18] = plate medium containing compound at 50 mg/L, read-out: Growth inhibition grade, B.c
[19] = plate medium containing compound at 5 mg/L, read-out: Growth inhibition grade, G.f
[20] = plate medium containing compound at 50 mg/L, read-out: Growth inhibition grade, G.f
[21] = plate medium containing compound at 5 mg/L, read-out: Growth inhibition grade, S.s
[22] = plate medium containing compound at 50 mg/L, read-out: Growth inhibition grade, S.s

Structure (SMILES) | inhibition at 5 µg/mL (Pyricularia oryzae; [1]) [%] | inhibition at 50 µg/mL (Pyricularia oryzae; [1]) [%] | inhibition at 5 µg/mL (Rhynchosporium secalis; [2]) [%] | inhibition at 50 µg/mL (Rhynchosporium secalis; [3]) [%] | inhibition at 5 µg/mL (Ustilago nuda; [4]) [%] | inhibition at 50 µg/mL (Ustilago nuda; [5]) [%] | inhibition at 5 µg/mL (Botritis cinerea; [6]) [%] | inhibition at 50 µg/mL (Botritis cinerea; [7]) [%] | inhibition at 5 µg/mL (Giberella fujikuroi; [8]) [%] | inhibition at 50 µg/mL (Giberella fujikuroi; [9]) [%] | inhibition at 5 µg/mL (Sclerotinia sclerotiorum; [10]) [%] | inhibition at 50 µg/mL (Sclerotinia sclerotiorum; [11]) [%] | inhibition at 5 µg/mL (Pyricularia oryzae; [12]) [%] | inhibition at 50 µg/mL (Pyricularia oryzae; [12]) [%] | inhibition at 5 µg/mL (Rhynchosporium secalis; [13]) [%] | inhibition at 50 µg/mL (Rhynchosporium secalis; [14]) [%] | inhibition at 5 µg/mL (Ustilago nuda; [15]) [%] | inhibition at 50 µg/mL (Ustilago nuda; [16]) [%] | inhibition at 5 µg/mL (Botritis cinerea; [17]) [%] | inhibition at 50 µg/mL (Botritis cinerea; [18]) [%] | also measured
C[C@]1(CCl)CC[C@@H](Cc2ccc(Cl)cc2)[C@]1(O)Cn1ccnc1 (racemic) [Compound I-244, (1RS,2SR,5SR)-5-(4-chlorobenzyl)-2-chloromethyl-2-methyl-1-imidazol-1-ylmethylcyclopentanol] | > 80 | > 80 | > 80 | > 80 | > 80 | > 80 | 60 to 80 | > 80 | > 80 | > 80 | > 80 | > 80 | – | – | – | – | – | – | – | – | –
CC(Cl)=C[C@]1(C)CC[C@@H](Cc2ccc(Cl)cc2)[C@]1(O)Cn1cncn1 (racemic) [Compound I-115, (1RS,2SR,5SR)-5-(4-chlorobenzyl)-2-(2-chloropropenyl)-2-methyl-1-(1H-1,2,4-triazol-1-ylmethyl)cyclopentanol] | > 80 | > 80 | > 80 | > 80 | 60 to 80 | > 80 | > 80 | > 80 | > 80 | > 80 | > 80 | > 80 | – | – | – | – | – | – | – | – | –
C[C@]1(CCl)CC[C@@H](Cc2ccc(F)cc2)[C@]1(O)Cn1cncn1 (racemic) [Compound I-77, (1RS,2SR,5SR)-2-chloromethyl-5-(4-fluorobenzyl)-2-methyl-1-(1H-1,2,4-triazol-1-ylmethyl)cyclopentanol] | > 80 | > 80 | > 80 | > 80 | > 80 | > 80 | > 80 | > 80 | > 80 | > 80 | > 80 | > 80 | > 80 | > 80 | > 80 | > 80 | > 80 | > 80 | > 80 | > 80 | inhibition at 5 µg/mL (Giberella fujikuroi; [19]): > 80%; inhibition at 50 µg/mL (Giberella fujikuroi; [20]): > 80%; inhibition at 5 µg/mL (Sclerotinia sclerotiorum; [21]): > 80%; inhibition at 50 µg/mL (Sclerotinia sclerotiorum; [22]): > 80%
C[C@]1(CCl)CC[C@@H](Cc2cccc(Cl)c2)[C@]1(O)Cn1cncn1 (racemic) [Compound I-74, (1RS,2SR,5SR)-5-(3-chlorobenzyl)-2-chloromethyl-2-methyl-1-(1H-1,2,4-triazol-1-ylmethyl)cyclopentanol] | – | – | – | – | – | – | – | – | – | – | – | – | > 80 | > 80 | > 80 | > 80 | > 80 | > 80 | > 80 | > 80 | inhibition at 5 µg/mL (Giberella fujikuroi; [19]): > 80%; inhibition at 50 µg/mL (Giberella fujikuroi; [20]): > 80%; inhibition at 5 µg/mL (Sclerotinia sclerotiorum; [21]): > 80%; inhibition at 50 µg/mL (Sclerotinia sclerotiorum; [22]): > 80%
C[C@]1(CCl)CC[C@H](Cc2cccc(Cl)c2)[C@]1(O)Cn1cncn1 (relative stereo) [Compound I-374] | – | – | – | – | – | – | – | – | – | – | – | – | – | – | – | – | – | – | – | – | Growth inhibition grade, P.o (Pyricularia oryzae; 5 mg/L): 5 (% Mycerial growth inhibition of 80% or higher); Growth inhibition grade, P.o (Pyricularia oryzae; 50 mg/L): 5 (% Mycerial growth inhibition of 80% or higher); Growth inhibition grade, R.sec (Rhynchosporium secalis; plate medium, 5 mg/L): 5 (% Mycerial growth inhibition of 80% or higher); Growth inhibition grade, R.sec (Rhynchosporium secalis; plate medium, 50 mg/L): 5 (% Mycerial growth inhibition of 80% or higher); Growth inhibition grade, U.n (Ustilago nuda; plate medium, 5 mg/L): 4 (% Mycerial growth inhibition of less than 80 to 60% or higher); Growth inhibition grade, U.n (Ustilago nuda; plate medium, 50 mg/L): 5 (% Mycerial growth inhibition of 80% or higher); Growth inhibition grade, B.c (Botritis cinerea; plate medium, 5 mg/L): 5 (% Mycerial growth inhibition of 80% or higher); Growth inhibition grade, B.c (Botritis cinerea; plate medium, 50 mg/L): 5 (% Mycerial growth inhibition of 80% or higher); Growth inhibition grade, G.f (Giberella fujikuroi; plate medium, 5 mg/L): 5 (% Mycerial growth inhibition of 80% or higher); Growth inhibition grade, G.f (Giberella fujikuroi; plate medium, 50 mg/L): 5 (% Mycerial growth inhibition of 80% or higher); Growth inhibition grade, S.s (Sclerotinia sclerotiorum; plate medium, 5 mg/L): 5 (% Mycerial growth inhibition of 80% or higher); Growth inhibition grade, S.s (Sclerotinia sclerotiorum; plate medium, 50 mg/L): 5 (% Mycerial growth inhibition of 80% or higher)
